This note sets out measurements from patent publication US10335392B2, “Cyclic compounds useful as modulators of TNF α” (BRISTOL-MYERS SQUIBB COMPANY, priority 2015, dated 2019).

Molecules are shown by their SMILES. Some results are limits rather than exact numbers.

TNFα, sequence (P01375 77-233): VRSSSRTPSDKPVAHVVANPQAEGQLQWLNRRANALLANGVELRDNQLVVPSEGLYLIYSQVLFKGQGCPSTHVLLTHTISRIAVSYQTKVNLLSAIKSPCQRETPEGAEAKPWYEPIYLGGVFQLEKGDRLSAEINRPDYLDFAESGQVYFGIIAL

In this assay the target is TNFα (Homo sapiens (Human), UniProt P01375). Briefly: TNF induced HEK-Blue assay. The assay is classed as cell-based. Conditions: TNFα 0.5 ng/ml; HEK-Blue-CD40L cells, NF-kB-driven secreted alkaline phosphatase reporter; 18 h. On the procedure:
TNF or CD40L-Induced HEK-Blue Assay
Test compounds serially diluted in DMSO were plated in an assay plate (LABCYTE, Cat. # LP-0200) at final concentrations ranging from 0.004 μM to 25 μM. TNFα (final concentration 0.5 ng/ml) or CD40L (final concentration 30 ng/ml) in assay buffer [DMEM, 4.5 g/l glucose (Gibco, Cat. 21063-029), 10% FBS (Sigma, F4135), 1% Penicillin-Streptomycin (Gibco, Cat. 15140-122), 1% Anti-Anti (Gibco, Cat. 15240-112) and 2 mM L-glutamine (Gibco, Cat. 25030-081)] was then added to the assay plate. After a 30 minute pre-incubation at 37° C. and 5% CO2, HEK-Blue™-CD40L cells (INVIVOGEN, Cat. Code hkb-cd40) containing a NF-kB-driven secreted alkaline phosphatase reporter gene were seeded into the assay plate at a density of 20,000 cells per well. This plate was then incubated for 18 h at 37° C. and 5% CO2. Secreted alkaline phosphatase expression was measured using QUANTI-Blue™ (INVIVOGEN, Cat. Code rep-qb1) according to manufacturer's specifications and the assay plate was read on a PerkinElmer Envision at 620 nm.
Inhibition data for the test compound over a range of concentrations was plotted as percentage inhibition of the test compound (100%=maximum inhibition). IC50 values were determined after correcting for background [(sample read−mean of low control)/(mean of high control−mean of low control)] where by the low control is DMSO without stimulation and high control is DMSO with stimulation. The IC50 is defined as the concentration of test compound which produces 50% inhibition and was quantified using the 4 parameter logistic equation to fit the data.
Broadly, the IC50 is the midpoint of a concentration-inhibition curve. A higher IC50 goes with weaker potency. In turn, `CC(C)(O)c1ncc(-c2cc3c(cc2F)nc2n3[C@@H](c3ccccc3OC(F)F)[C@H]3C[C@@H]23)cn1` (racemic) [Example 1, rac-2-(5-((1aR,8R,8aS)-8-(2-(difluoromethoxy)phenyl)-4-fluoro-1,1a,8,8a-tetrahydrobenzo[d]cyclopropa[3,4]pyrrolo[1,2-a]imidazol-5-yl)pyrimidin-2-yl) propan-2-ol] displayed an IC50 of less than 1 µM. The figure for `Fc1cc2nc3n(c2cc1Br)[C@@H](c1ccccc1OC(F)F)[C@@H]1C[C@H]31` (racemic) [Example 11, rac-(1aR,8S,8aS)-5-bromo-8-(2-(difluoromethoxy)phenyl)-4-fluoro-1,1a,8,8a-tetrahydrobenzo[d]cyclopropa[3,4]pyrrolo[1,2-a]imidazole] is 10 to 25 µM; for `CC(C)(O)c1ncc(-c2cc3c(cc2F)nc2n3[C@@H](c3ccccc3OC(F)F)[C@@H]3C[C@H]23)cn1` (racemic) [Example 20, rac-2-(5-((1aR,8S,8aS)-8-(2-(difluoromethoxy)phenyl)-4-fluoro-1,1a,8,8a-tetrahydrobenzo[d]cyclopropa[3,4]pyrrolo[1,2-a]imidazol-5-yl)pyrimidin-2-yl)propan-2-ol] it is less than 1 µM. The figure for `CC(C)(O)c1ncc(-c2cc3c(cc2F)nc2n3[C@@H](c3ccccc3Oc3ccccc3)[C@@H]3C[C@H]23)cn1` (racemic) [Example 23, rac-2-(5-((1aR,8S,8aS)-4-fluoro-8-(2-phenoxyphenyl)-1,1a,8,8a-tetrahydrobenzo[d]cyclopropa[3,4]pyrrolo[1,2-a]imidazol-5-yl)pyrimidin-2-yl)propan-2-ol] is 1 to 10 µM. On to `CC(C)(O)c1ncc(-c2cc3c(cc2F)nc2n3[C@@H](c3ccccc3Oc3ccccc3)[C@H]3C[C@@H]23)cn1` (racemic) [Example 24, rac-2-(5-((1aR,8R,8aS)-4-fluoro-8-(2-phenoxyphenyl)-1,1a,8,8a-tetrahydrobenzo[d]cyclopropa[3,4]pyrrolo[1,2-a]imidazol-5-yl)pyrimidin-2-yl)propan-2-ol], for which the half-inhibitory concentration (IC50) lay within 1 to 10 µM.

Compound `CC(C)(O)c1ncc(-c2cc3c(cc2F)nc2n3[C@@H](c3ccccc3OCc3ccccc3)[C@@H]3C[C@H]23)cn1` (racemic) [Example 25, rac-2-(5-((1aR,8S,8aS)-8-(2-(benzyloxy)phenyl)-4-fluoro-1,1a,8,8a-tetrahydrobenzo[d]cyclopropa[3,4]pyrrolo[1,2-a]imidazol-5-yl)pyrimidin-2-yl)propan-2-ol] came in with an IC50 of 1 to 10 µM. In turn, `CC(C)(O)c1ncc(-c2cc3c(cc2F)nc2n3[C@@H](c3ccccc3OCc3ccccc3)[C@H]3C[C@@H]23)cn1` (racemic) [Example 26, rac-2-(5-((1aR,8R,8aS)-8-(2-(benzyloxy)phenyl)-4-fluoro-1,1a,8,8a-tetrahydrobenzo[d]cyclopropa[3,4]pyrrolo[1,2-a]imidazol-5-yl)pyrimidin-2-yl)propan-2-ol] gave an IC50 of 10 to 25 µM. The figure for `COc1ccc(-c2ccc3nc4n(c3c2)[C@@H](c2ccccc2)[C@H]2CNC[C@@H]42)cn1` (racemic) [Example 36, rac-(3aR,10S,10aS)-7-(6-methoxypyridin-3-yl)-10-phenyl-1,2,3,3a,10,10a-hexahydrobenzo[d]pyrrolo[3′,4′:3,4]pyrrolo[1,2-a]imidazole] is 10 to 25 µM; for `COc1ccc(-c2ccc3nc4n(c3c2)[C@@H](c2ccccc2)[C@H]2CN(C(=O)NC(C)(C)C)C[C@@H]42)cn1` (racemic) [Example 37, rac-(3aR,10S,10aS)—N-(tert-butyl)-7-(6-methoxypyridin-3-yl)-10-phenyl-3,3a,10,10a-tetrahydrobenzo[d]pyrrolo[3′,4′:3,4]pyrrolo[1,2-a]imidazole-2(1H)-carboxamide] it is 1 to 10 µM; for `COc1ccc(-c2ccc3nc4n(c3c2)[C@@H](c2ccccc2)[C@H]2CN(C(C)=O)C[C@@H]42)cn1` (racemic) [Example 38, rac-1-((3aR,10S,10aS)-7-(6-methoxypyridin-3-yl)-10-phenyl-3,3a,10,10a-tetrahydrobenzo[d]pyrrolo[3′,4′:3,4]pyrrolo[1,2-a]imidazol-2(1H)-yl)ethan-1-one] it is 10 to 25 µM. The figure for `CCNC(=O)N1C[C@H]2[C@@H](C1)c1nc3ccc(-c4ccc(OC)nc4)cc3n1[C@H]2c1ccccc1` (racemic) [Example 39, rac-(3aR,10S,10aS)—N-ethyl-7-(6-methoxypyridin-3-yl)-10-phenyl-3,3a,10,10a-tetrahydrobenzo[d]pyrrolo[3′,4′:3,4]pyrrolo[1,2-a]imidazole-2(1H)-carboxamide] is 1 to 10 µM. The figure for `COc1ccc(-c2ccc3nc4n(c3c2)[C@@H](c2ccccc2)[C@H]2CN(C(=O)OC(C)(C)C)C[C@@H]42)cn1` (racemic) [Example 40, rac-tert-butyl (3aR,10S,10aS)-7-(6-methoxypyridin-3-yl)-10-phenyl-3,3a,10,10a-tetrahydrobenzo[d]pyrrolo[3′,4′:3,4]pyrrolo[1,2-a]imidazole-2(1H)-carboxylate] is 10 to 25 µM; for `COc1ccc(-c2ccc3nc4n(c3c2)[C@@H](c2ccccc2)[C@H]2CN(C(=O)c3ccccc3)C[C@@H]42)cn1` (racemic) [Example 41, rac-((3aR,10S,10aS)-7-(6-methoxypyridin-3-yl)-10-phenyl-3,3a,10,10a-tetrahydrobenzo[d]pyrrolo[3′,4′:3,4]pyrrolo[1,2-a]imidazol-2(1H)-yl)(phenyl)methanone] it is 10 to 25 µM. For `COc1ccc(-c2ccc3nc4n(c3c2)[C@@H](c2ccccc2)[C@H]2CC=CC[C@@H]42)cn1` (racemic) [Example 42, rac-(4aR,11R,11aS)-8-(6-methoxypyridin-3-yl)-1-phenyl-4,4a,11,11a-tetrahydro-1H-benzo[4,5]imidazo[2,1-a]isoindole], the IC50 lay within 10 to 25 µM. With `CNC(=O)c1ccc(-c2ccc3nc4n(c3c2)[C@@H](c2cc(C)ccc2C)[C@H]2[C@H](c3ccccc3)[C@@H]42)cn1` (racemic) [Example 43, rac-5-((1R,1aS,8S,8aR)-8-(2,5-dimethylphenyl)-1-phenyl-1,1a,8,8a-tetrahydrobenzo[d]cyclopropa[3,4]pyrrolo[1,2-a]imidazol-5-yl)-N-methylpicolinamide], the IC50 lay in the range of 10 to 25 µM. The figure for `CC(C)(O)c1ncc(-c2cc3c(cc2F)nc2n3[C@H](c3ccccc3OC(F)F)[C@H]3C[C@@H]23)cn1` (stereo in doubt) [Example 21, 2-(5-((1aR,8S,8aS)-8-(2-(difluoromethoxy)phenyl)-4-fluoro-1,1a,8,8a-tetrahydrobenzo[d]cyclopropa[3,4]pyrrolo[1,2-a]imidazol-5-yl)pyrimidin-2-yl)propan-2-ol] is less than 1 µM; for `CC(C)(O)c1ncc(-c2cc3c(cc2F)nc2n3[C@@H](c3ccccc3OC(F)F)[C@H]3C[C@@H]23)cn1` [Example 2, 2-(5-((1aR,8R,8aS)-8-(2-(difluoromethoxy)phenyl)-4-fluoro-1,1a,8,8a-tetrahydrobenzo[d]cyclopropa[3,4]pyrrolo[1,2-a]imidazol-5-yl)pyrimidin-2-yl)propan-2-ol] it is less than 1 µM. The figure for `CC(C)(O)c1ncc(-c2cc3c(cc2F)nc2n3[C@H](c3ccccc3OC(F)F)[C@@H]3C[C@H]23)cn1` [Example 3, 2-(5-((1aS,8S,8aR)-8-(2-(difluoromethoxy)phenyl)-4-fluoro-1,1a,8,8a-tetrahydrobenzo[d]cyclopropa[3,4]pyrrolo[1,2-a]imidazol-5-yl)pyrimidin-2-yl)propan-2-ol] is less than 1 µM. The figure for `O=C(O)CN1CCN(c2ncc(-c3cc4c(cc3F)nc3n4[C@@H](c4ccccc4OC(F)F)[C@H]4C[C@@H]34)cn2)CC1` [Example 4, 2-(4-(5-((1aR,8R,8aS)-8-(2-(difluoromethoxy)phenyl)-4-fluoro-1,1a,8,8a-tetrahydrobenzo[d]cyclopropa[3,4]pyrrolo[1,2-a]imidazol-5-yl)pyrimidin-2-yl)piperazin-1-yl)acetic acid] is less than 1 µM; for `NS(=O)(=O)c1ccc(-c2cc3c(cc2F)nc2n3[C@@H](c3ccccc3OC(F)F)[C@H]3C[C@@H]23)cc1` [Example 5, 4-((1aR,8R,8aS)-8-(2-(difluoromethoxy)phenyl)-4-fluoro-1,1a,8,8a-tetrahydrobenzo[d]cyclopropa[3,4]pyrrolo[1,2-a]imidazol-5-yl)benzenesulfonamide] it is less than 1 µM. The compound `Fc1cc2nc3n(c2cc1-c1cnc(N2CCOCC2)nc1)[C@@H](c1ccccc1OC(F)F)[C@H]1C[C@@H]31` [Example 6, 4-(5-((1aR,8R,8aS)-8-(2-(difluoromethoxy)phenyl)-4-fluoro-1,1a,8,8a-tetrahydrobenzo[d]cyclopropa[3,4]pyrrolo[1,2-a]imidazol-5-yl)pyrimidin-2-yl)morpholine] showed an IC50 of less than 1 µM. The figure for `NC(=O)c1ccc(-c2cc3c(cc2F)nc2n3[C@@H](c3ccccc3OC(F)F)[C@H]3C[C@@H]23)cn1` [Example 7, 5-((1aR,8R,8aS)-8-(2-(difluoromethoxy)phenyl)-4-fluoro-1,1a,8,8a-tetrahydrobenzo[d]cyclopropa[3,4]pyrrolo[1,2-a]imidazol-5-yl)picolinamide] is less than 1 µM.
